Measured values as given in ChEMBL document CHEMBL5465560, “Selectivity Literature for EUbOPEN Chemogenomic Library” (2024).

Key:
[1] = molecular target: Serine/threonine-protein kinase 25 (Homo sapiens) (UniProt O00506); assay: Selectivity interaction (KinomeScan (DiscoverX)) EUB0000699a STK25; conditions: at 10 µM
[2] = molecular target: Citron Rho-interacting kinase (Homo sapiens) (UniProt O14578); assay: Selectivity interaction (KinomeScan (DiscoverX)) EUB0000229b CIT; conditions: at 10 µM
Aurora kinase B = Aurora kinase B (Homo sapiens, UniProt Q96GD4); assay: Selectivity interaction (Enzymatic assay) EUB0001550a AURKB
Chain of Aurora kinase B (Q96GD4 whole entry): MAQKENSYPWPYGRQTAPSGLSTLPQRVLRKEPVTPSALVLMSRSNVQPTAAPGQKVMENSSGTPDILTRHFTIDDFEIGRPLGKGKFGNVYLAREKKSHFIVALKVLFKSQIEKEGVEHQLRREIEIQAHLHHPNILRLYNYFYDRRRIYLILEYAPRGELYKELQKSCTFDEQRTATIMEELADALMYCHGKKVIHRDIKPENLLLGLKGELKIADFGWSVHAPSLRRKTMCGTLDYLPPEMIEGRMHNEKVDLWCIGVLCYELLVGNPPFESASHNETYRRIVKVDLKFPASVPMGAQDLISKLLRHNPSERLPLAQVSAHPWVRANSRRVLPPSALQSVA

[3] = molecular target: Cyclin-dependent kinase 5 (Homo sapiens, UniProt Q00535); assay: Selectivity interaction (KinomeScan (DiscoverX)) EUB0000655a CDK5; conditions: at 10 µM
Chain of Cyclin-dependent kinase 5 (Q00535 whole entry, looked up): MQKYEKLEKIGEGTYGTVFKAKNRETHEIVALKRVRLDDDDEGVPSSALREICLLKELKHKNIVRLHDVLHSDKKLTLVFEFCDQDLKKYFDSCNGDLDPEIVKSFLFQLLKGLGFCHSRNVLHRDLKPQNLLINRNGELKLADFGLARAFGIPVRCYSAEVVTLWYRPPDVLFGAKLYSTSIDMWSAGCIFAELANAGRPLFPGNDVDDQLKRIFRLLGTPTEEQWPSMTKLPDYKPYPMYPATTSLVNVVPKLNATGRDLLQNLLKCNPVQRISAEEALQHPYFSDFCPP

[4] = molecular target: Glutamate receptor ionotropic, NMDA 2B (Homo sapiens) (UniProt Q13224); assay: Selectivity interaction (Panel of kinases, GPCRs, ion channels and transporters (enzymatic assay)) EUB0000266bCl GRIN2B
[5] = molecular target: Sodium-dependent serotonin transporter (Homo sapiens, UniProt P31645); assay: Selectivity interaction (GPCR panel (PDSP screen)) EUB0001079a SLC6A4; conditions: at 10 µM
Chain of Sodium-dependent serotonin transporter (P31645 whole entry, looked up): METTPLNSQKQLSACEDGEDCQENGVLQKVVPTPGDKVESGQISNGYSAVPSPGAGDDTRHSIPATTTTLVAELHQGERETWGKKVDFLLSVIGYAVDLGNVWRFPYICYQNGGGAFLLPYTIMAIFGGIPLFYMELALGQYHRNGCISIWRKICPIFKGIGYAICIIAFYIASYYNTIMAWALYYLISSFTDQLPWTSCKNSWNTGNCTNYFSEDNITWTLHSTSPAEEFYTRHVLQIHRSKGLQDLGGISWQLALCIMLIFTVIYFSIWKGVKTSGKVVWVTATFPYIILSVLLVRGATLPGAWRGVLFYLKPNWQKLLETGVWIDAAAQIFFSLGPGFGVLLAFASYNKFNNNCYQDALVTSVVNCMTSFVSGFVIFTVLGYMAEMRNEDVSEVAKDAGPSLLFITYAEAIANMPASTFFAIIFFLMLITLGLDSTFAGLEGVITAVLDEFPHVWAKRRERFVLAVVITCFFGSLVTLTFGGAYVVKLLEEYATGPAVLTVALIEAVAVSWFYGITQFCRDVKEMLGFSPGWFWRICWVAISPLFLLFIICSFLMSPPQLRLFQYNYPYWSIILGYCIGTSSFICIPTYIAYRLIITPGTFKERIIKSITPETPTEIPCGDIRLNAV

[6] = molecular target: T1, Calcium/calmodulin-dependent protein kinase type IV (Homo sapiens) (UniProt Q16566); assay: Selectivity interaction (Kinase panel (KiNativ target engagement assay in Jurkat cells)) EUB0001635a CAMK4; assay type: cell-based; conditions: Selectivity number of off-targets 0.0, Selectivity number of targets 233.0, Source Knowledge https://www.sciencedirect.com/science/article/pii/S2451945619300674?via%3Dihub, at 1 µM
T1 sequence (whole entry): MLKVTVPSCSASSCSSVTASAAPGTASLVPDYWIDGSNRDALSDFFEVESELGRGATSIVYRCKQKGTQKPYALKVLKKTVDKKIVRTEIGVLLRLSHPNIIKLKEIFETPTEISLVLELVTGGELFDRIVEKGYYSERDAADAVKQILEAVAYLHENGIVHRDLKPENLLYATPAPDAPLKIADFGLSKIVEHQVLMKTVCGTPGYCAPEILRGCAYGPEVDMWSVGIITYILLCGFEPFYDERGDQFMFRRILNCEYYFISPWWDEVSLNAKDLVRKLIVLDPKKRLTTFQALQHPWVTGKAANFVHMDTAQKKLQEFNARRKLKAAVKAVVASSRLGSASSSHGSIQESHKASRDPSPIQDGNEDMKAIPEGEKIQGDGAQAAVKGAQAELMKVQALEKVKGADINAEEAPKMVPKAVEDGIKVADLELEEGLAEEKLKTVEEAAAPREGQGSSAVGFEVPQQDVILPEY

[7] = molecular target: RAC-alpha serine/threonine-protein kinase (Homo sapiens, UniProt P31749); assay: Selectivity interaction (Kinase panel (KiNativ target engagement assay in Jurkat cells)) EUB0001635a AKT1; assay type: cell-based; conditions: at 1 µM
Chain of RAC-alpha serine/threonine-protein kinase (P31749 whole entry): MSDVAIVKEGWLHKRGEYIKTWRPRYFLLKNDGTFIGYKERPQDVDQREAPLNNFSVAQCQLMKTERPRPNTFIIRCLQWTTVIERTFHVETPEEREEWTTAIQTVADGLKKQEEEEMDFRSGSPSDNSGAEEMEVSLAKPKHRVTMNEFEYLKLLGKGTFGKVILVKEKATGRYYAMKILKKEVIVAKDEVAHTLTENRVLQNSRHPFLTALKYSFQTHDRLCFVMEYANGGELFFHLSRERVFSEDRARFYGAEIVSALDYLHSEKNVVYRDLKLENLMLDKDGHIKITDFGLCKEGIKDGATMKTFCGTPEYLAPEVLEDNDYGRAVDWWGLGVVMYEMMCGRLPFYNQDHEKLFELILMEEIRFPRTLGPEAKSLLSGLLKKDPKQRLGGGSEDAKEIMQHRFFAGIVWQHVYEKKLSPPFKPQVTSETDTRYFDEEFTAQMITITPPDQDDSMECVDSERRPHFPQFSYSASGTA

[8] = molecular target: MAP kinase-activated protein kinase 2 (Homo sapiens, UniProt P49137); assay: Selectivity interaction (Kinase panel (33PanQinase(R) Activity Assay)) EUB0000877a MAPKAPK2
Chain of MAP kinase-activated protein kinase 2 (P49137 whole entry): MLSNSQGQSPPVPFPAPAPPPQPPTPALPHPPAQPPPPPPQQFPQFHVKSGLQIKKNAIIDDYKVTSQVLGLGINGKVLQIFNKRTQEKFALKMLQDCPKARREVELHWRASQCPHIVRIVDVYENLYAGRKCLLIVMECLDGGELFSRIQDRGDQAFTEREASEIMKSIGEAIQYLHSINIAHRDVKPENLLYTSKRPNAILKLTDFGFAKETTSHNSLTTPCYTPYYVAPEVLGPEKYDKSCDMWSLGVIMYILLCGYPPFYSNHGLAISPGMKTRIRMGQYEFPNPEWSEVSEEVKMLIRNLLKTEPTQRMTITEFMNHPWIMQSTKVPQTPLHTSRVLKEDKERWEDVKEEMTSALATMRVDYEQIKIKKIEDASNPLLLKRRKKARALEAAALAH

[9] = molecular target: Ribosomal protein S6 kinase alpha-1 (Homo sapiens, UniProt Q15418); assay: Selectivity interaction (KinomeScan (DiscoverX)) EUB0000595a RPS6KA1; conditions: at 10 µM
Chain of Ribosomal protein S6 kinase alpha-1 (Q15418 whole entry): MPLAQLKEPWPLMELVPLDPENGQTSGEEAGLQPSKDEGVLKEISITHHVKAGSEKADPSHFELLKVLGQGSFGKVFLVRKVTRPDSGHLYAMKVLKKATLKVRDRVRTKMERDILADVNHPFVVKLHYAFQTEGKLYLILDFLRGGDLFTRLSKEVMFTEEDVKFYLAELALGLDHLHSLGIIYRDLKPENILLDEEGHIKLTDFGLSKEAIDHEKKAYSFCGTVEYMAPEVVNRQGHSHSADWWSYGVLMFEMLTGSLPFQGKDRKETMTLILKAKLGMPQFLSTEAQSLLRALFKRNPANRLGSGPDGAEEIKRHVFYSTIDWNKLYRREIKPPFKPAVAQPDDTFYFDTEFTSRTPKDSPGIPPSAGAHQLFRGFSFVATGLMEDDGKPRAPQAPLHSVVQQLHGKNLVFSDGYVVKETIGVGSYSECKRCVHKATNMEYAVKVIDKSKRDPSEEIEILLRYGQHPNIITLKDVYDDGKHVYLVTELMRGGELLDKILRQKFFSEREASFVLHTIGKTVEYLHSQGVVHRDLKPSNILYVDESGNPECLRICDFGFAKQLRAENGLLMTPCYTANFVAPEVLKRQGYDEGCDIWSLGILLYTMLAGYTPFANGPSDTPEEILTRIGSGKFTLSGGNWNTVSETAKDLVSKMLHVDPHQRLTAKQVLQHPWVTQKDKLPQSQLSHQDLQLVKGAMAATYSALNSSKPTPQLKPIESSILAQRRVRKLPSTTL

[10] = molecular target: Dual specificity protein kinase CLK1 (Homo sapiens, UniProt P49759); assay: Selectivity interaction (KinomeScan (DiscoverX)) EUB0000045b CLK1
Chain of Dual specificity protein kinase CLK1 (P49759 whole entry, looked up): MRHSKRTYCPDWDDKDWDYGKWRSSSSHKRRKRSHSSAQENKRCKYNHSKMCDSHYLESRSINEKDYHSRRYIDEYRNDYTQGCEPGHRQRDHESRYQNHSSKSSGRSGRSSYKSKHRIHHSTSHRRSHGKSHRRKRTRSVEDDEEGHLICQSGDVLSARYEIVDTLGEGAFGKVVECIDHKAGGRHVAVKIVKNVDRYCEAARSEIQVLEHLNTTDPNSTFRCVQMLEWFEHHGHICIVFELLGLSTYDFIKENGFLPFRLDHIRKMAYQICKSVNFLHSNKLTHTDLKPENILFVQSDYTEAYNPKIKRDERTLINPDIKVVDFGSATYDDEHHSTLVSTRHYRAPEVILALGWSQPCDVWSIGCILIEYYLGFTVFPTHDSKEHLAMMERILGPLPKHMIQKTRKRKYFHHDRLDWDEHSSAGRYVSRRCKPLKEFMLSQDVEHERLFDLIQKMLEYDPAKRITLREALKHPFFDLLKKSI

[11] = molecular target: T2, Serine/threonine-protein kinase tousled-like 1 (Homo sapiens) (UniProt Q9UKI8); assay: Selectivity interaction (KinomeScan (DiscoverX)) EUB0000618a TLK1; conditions: at 10 µM
T2 sequence (whole entry): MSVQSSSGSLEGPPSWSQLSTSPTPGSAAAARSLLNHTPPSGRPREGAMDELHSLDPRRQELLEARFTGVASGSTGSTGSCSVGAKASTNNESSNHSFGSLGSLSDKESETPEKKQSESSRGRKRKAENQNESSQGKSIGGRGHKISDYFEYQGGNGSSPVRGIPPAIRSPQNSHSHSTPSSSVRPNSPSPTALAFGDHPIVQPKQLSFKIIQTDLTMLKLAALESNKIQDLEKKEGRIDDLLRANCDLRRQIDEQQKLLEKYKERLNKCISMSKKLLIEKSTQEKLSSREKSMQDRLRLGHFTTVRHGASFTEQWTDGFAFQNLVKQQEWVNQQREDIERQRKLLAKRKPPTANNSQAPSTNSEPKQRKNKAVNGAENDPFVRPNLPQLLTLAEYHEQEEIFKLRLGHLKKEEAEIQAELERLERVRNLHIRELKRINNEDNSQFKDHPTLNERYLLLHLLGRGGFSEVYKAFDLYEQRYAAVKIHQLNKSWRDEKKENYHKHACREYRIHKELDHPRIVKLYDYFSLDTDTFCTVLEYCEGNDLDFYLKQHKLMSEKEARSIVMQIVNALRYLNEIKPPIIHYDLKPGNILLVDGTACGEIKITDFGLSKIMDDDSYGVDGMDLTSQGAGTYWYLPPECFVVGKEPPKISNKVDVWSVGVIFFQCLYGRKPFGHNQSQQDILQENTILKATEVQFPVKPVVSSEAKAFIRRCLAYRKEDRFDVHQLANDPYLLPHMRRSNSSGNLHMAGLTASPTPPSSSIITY

[12] = molecular target: Serine/threonine-protein kinase pim-2 (Homo sapiens, UniProt Q9P1W9); assay: Selectivity interaction (Kinase screening (Nanosyn)) EUB0000604a PIM2
Chain of Serine/threonine-protein kinase pim-2 (Q9P1W9 whole entry, looked up): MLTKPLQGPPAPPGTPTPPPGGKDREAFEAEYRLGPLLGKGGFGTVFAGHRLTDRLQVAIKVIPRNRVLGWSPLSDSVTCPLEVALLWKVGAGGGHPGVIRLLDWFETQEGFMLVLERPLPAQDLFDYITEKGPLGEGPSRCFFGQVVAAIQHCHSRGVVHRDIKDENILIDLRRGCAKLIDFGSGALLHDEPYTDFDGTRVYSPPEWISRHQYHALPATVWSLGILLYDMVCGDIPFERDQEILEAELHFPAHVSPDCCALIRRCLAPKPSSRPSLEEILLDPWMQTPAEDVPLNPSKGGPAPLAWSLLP

[13] = molecular target: T3, Phosphatidylinositol 5-phosphate 4-kinase type-2 gamma (Homo sapiens) (UniProt Q8TBX8); assay: Selectivity interaction (ActivX KiNativ screen (ex vivo kinase selectivity in human PBMCs)) EUB0001619a PIP4K2C; assay type: cell-based; conditions: PBMC, at 1 µM
T3 sequence (whole entry): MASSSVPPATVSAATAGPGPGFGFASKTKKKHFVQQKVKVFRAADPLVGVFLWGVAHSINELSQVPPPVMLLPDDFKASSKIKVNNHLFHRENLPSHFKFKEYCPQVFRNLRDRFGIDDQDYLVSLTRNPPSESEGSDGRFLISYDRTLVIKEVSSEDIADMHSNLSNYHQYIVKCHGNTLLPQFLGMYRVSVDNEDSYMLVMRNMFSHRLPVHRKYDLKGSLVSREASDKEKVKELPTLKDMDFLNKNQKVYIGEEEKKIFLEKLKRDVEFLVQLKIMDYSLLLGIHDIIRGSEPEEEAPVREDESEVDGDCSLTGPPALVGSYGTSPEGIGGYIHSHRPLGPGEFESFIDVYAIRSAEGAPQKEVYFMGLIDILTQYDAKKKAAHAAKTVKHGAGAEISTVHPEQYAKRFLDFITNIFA

Chain of Serine/threonine-protein kinase 25 (Homo sapiens) (O00506 whole entry, looked up): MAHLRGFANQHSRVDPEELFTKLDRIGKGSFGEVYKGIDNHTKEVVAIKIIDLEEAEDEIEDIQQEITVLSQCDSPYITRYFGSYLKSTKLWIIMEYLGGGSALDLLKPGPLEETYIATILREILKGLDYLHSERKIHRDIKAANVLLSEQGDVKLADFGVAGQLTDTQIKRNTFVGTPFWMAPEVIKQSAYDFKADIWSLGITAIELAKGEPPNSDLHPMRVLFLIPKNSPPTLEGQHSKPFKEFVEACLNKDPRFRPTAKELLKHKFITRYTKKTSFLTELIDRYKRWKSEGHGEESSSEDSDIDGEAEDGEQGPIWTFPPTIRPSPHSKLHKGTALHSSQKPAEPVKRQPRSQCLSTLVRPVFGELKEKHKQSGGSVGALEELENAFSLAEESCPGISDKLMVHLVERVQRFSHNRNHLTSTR

CCN(CC)CCCCNc1ncc2cc(-c3cc(OC)cc(OC)c3)c(NC(=O)NC(C)(C)C)nc2n1
% of control [1]: 9.4%

COc1cc(N(C)c2ccnc3ccc(C(F)(F)F)cc23)cc(OC)c1OC
% binding [2]: 93%

CN(C)CC#Cc1ccc2[nH]c3c(c2c1)-c1nc(N)ncc1CCC3
IC50 (Aurora kinase B): 1400 nM

CN(C)CCOc1ccc(-c2nc(-c3ccncc3)c(-c3ccc4c(c3)CC/C4=N\O)[nH]2)cc1
% of control [3]: 100%

CCn1c(-c2nc3cc(C(=O)N4CCCC(N)C4)ccc3n2C)cc2ccccc21 (stereo not given)
pXC50 [4]: < 4.3 M

Nc1cnc(N2CCc3cc(S(=O)(=O)Nc4c(F)cc(Cl)cc4F)cc(N4CCCC4=O)c32)nc1 [TP-020n]
% of inhibition [5]: 9.34%

C=CC(=O)Nc1ccc(C(=O)Nc2[nH]nc3c2CN(C(=O)N[C@H](CN(C)C)c2ccccc2)C3(C)C)cc1
% of engagement [6]: -8.6%
% of engagement [7]: -9.9%

CCC(=O)N1CC[C@H](Nc2ncnc3c2CN(c2cnc(OC)c(C(F)(F)F)c2)CC3)C1 [LENIOLISIB]
IC50 [8]: > 10 µM

COCC(=O)NC/C=C/c1ccc2ncnc(Nc3ccc(Oc4ccc(C)nc4)c(C)c3)c2c1 [CP-724714]
% of control [9]: 73%

C=CC(=O)Nc1cc(-n2c(=O)ccc3cnc4ccc(-c5ccc(NS(C)(=O)=O)cc5)cc4c32)ccc1C
% of control ([10]; at 1 µM): 95%
% of control ([10]; at 10 µM): 86%

O[C@H]1CC[C@H](Nc2ncc3nc(Nc4c(F)cc(F)cc4F)n([C@H]4CCOC4)c3n2)CC1
% of control [11]: 50%

Cc1cnc(Nc2ccc(F)cc2Cl)nc1-c1c[nH]c(C(=O)N[C@H](CO)c2cccc(Cl)c2)c1
% of inhibition [12]: 3%

N#Cc1cccc(-c2c[nH]c3ncnc(N4CCOCC4)c23)c1
% of inhibition [13]: 58%
